Results reported in PubChem BioAssay (NCI).
“And” between values parts separate entries of the source, which are not always exact repeats. Identical values can stand only once.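 1) Cells in 96-well plates. 2) Compound, 48 h, 5 concentrations. 3) Linear interpolation between surrounding doses. 4) Unreached endpoint = highest concentration. GI50 = concentration required for 50% inhibition of growth. Definition used: TGI = concentration required for complete inhibition of growth.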

Assays:
Assay in all cases: NCI anticancer screen, dose series, 48 h
[1] = test system: OVCAR-5 ovarian
[2] = test system: SR leukemia
[3] = test system: RPMI-8226 leukemia
[4] = test system: M14 melanoma
[5] = test system: SK-OV-3 ovarian
[6] = test system: HCT-116 colon
[7] = test system: RXF 393 renal
[8] = test system: UACC-257 melanoma
[9] = test system: NCI-H460 lung
[10] = test system: KM12 colon

SMILES	TGI [1]	TGI [2]	TGI [3]	TGI [4]	TGI [5]	TGI [6]	TGI [7]	TGI [8]	TGI [9]	TGI [10]	GI50 [1]	GI50 [2]	GI50 [3]	GI50 [4]	GI50 [5]	GI50 [6]	GI50 [7]	GI50 [8]	GI50 [9]	GI50 [10]
ClC(Cl)=C1C(=C(Cl)Cl)C(Cl)(Cl)C1(Cl)Cl	6.25 µM	3.46 µM	3.69 µM	4.17 µM	28.8 µM	3.73 µM	3.26 µM	12.9 µM	16.6 µM	18.4 µM										
O=C1NCCS(=O)(=O)N[C@@H](CC2=CC=CCC2)C(=O)N2CCCC12 (stereo not given in full)	> 100 µM	> 100 µM	> 100 µM	> 100 µM	> 100 µM	> 100 µM	> 100 µM	> 100 µM	> 100 µM	> 100 µM										
O=C(c1ccco1)c1c(C(F)(F)F)n([O-])c2ccc(C(F)(F)F)cc2[n+]1=O	1.38 µM	0.408 µM	1.68 µM	2.48 µM	2.48 µM	0.279 µM	0.512 µM	3.06 µM	1.57 µM	0.973 µM	0.38 µM	0.127 µM	0.383 µM	1.04 µM	1.12 µM	0.147 µM	0.179 µM	1.49 µM	0.434 µM	0.467 µM
CCNC(=O)/C(=C/c1ccc(OC)cc1)c1cc(OC)c(OC)c(OC)c1	> 100 µM	> 100 µM	> 100 µM	> 100 µM	> 100 µM	> 100 µM	11.2 µM	> 100 µM	57 µM	> 100 µM										
COC(=O)/C([Se]c1c(C)cc(C)cc1C)=C(/[Se]c1c(C)cc(C)cc1C)C(=O)OC	> 100 µM	> 100 µM	> 100 µM	> 100 µM	> 100 µM	> 100 µM	> 100 µM	> 100 µM	> 100 µM	> 100 µM										
COc1cc2c(cc1OC)[C@H]1CN3CCC[C@H]3C=C1c1ccc(OC)c(O)c1-2	0.00431 µM and 0.0108 µM	0.00437 µM	0.0012 µM	0.000985 µM	0.000342 µM	0.00302 µM	0.0437 µM	0.00835 µM	0.00509 µM and 0.0106 µM	0.00183 µM										
COc1cc(/C=C\c2cc(OC)c(OC)c(OC)c2)cc(N/C=C\C(=O)c2c[nH]c3ccccc23)c1OC	7.03 µM	3.38 µM	2.93 µM	12.6 µM	27 µM	3.49 µM	3.38 µM	10.8 µM	27.1 µM	14.1 µM	2.45 µM	0.469 µM	0.627 µM	2.87 µM	12.3 µM	1.76 µM	1.69 µM	3.17 µM	5.6 µM	3.69 µM
C=Cc1ccc(C)[n+](C[Si](C)(C)O[Si](C)(C)C[n+]2cc(C=C)ccc2C)c1	> 100 µM	> 100 µM	> 100 µM	> 100 µM	> 100 µM	> 100 µM	> 100 µM	> 100 µM	> 100 µM	> 100 µM										
Cc1[nH]c2ccccc2c1C1Cc2ccccc2N1C(=O)C#Cc1ccc([N+](=O)[O-])cc1 (stereo not given)	> 100 µM	> 100 µM	> 100 µM	> 100 µM	> 100 µM	> 100 µM	> 100 µM	> 100 µM	> 100 µM	> 100 µM										
O=C(/C=C/c1ccccc1)c1ccccc1	> 10 µM	> 10 µM	> 7.63 µM	> 10 µM	> 10 µM	4.55 µM	> 10 µM	> 10 µM	> 10 µM	> 10 µM										
COc1ccc(-c2ccc3c(N4CCOC[C@@H]4C)nc(N4CCOC[C@@H]4C)nc3n2)cc1CO	60.3 µM	> 100 µM		20.5 µM	0.0479 µM and 0.116 µM	> 100 µM	0.00676 µM and 0.0643 µM	0.0285 µM	> 100 µM	> 100 µM	0.00607 µM and 0.0331 µM	0.00529 µM and 0.027 µM	0.00363 µM and 0.0281 µM	0.00517 µM and 0.0262 µM	0.00324 µM and 0.0138 µM	0.00858 µM and 0.0734 µM	0.00244 µM and < 0.0105 µM	0.00454 µM and 0.023 µM	0.00417 µM and 0.0101 µM	0.00626 µM and 0.0449 µM
Cc1cc(Nc2nc(-c3cn(-c4ccc(Cl)cc4)nn3)nc3ccccc23)n[nH]1	> 50 µM	40 µM	> 50 µM	> 50 µM	48.5 µM	25.4 µM	26.1 µM	> 50 µM	36.3 µM	> 50 µM	> 50 µM	8.78 µM	19.6 µM	7.54 µM	6.82 µM	7.64 µM	5.09 µM	33.4 µM	5.65 µM	4.95 µM
O=C(NCc1ccc(Cn2c(=O)sn(-c3ccccc3)c2=O)cc1)OCc1ccc2cccc(O)c2n1	3.12 µM	> 100 µM	4.97 µM	2.03 µM	18.7 µM	1.14 µM	1.71 µM	3.01 µM	3.13 µM	3.02 µM	1.54 µM	0.383 µM	0.37 µM	0.647 µM	5.96 µM	0.259 µM	0.457 µM	1.37 µM	1.41 µM	1.54 µM
COc1c(C)n(CCO)ccc1=O	> 100 µM	> 100 µM	> 100 µM	> 100 µM	> 100 µM	> 100 µM	> 100 µM	> 100 µM	> 100 µM	> 100 µM										
CN(C)C(=S)SSC(=S)N(C)C	28.2 µM and > 72.6 µM and 33.5 µM	74.6 µM and 27.8 µM and 34.8 µM	49.1 µM and 16.1 µM and 58.9 µM	30 µM and > 61.7 µM and > 51.3 µM	> 100 µM	28.9 µM and 30.4 µM and > 55.9 µM	31 µM and > 62.6 µM and 32.6 µM	30.5 µM and 39.9 µM and > 55.7 µM	25.2 µM and 13.6 µM and 53 µM	24.7 µM and 11.1 µM and 45.4 µM	14.9 µM and > 58.4 µM and 16.6 µM			14.4 µM	37.1 µM and > 100 µM and 31.9 µM		16.5 µM and 38.6 µM and 16.6 µM	15 µM and 4.06 µM and 28.4 µM	0.365 µM and 0.324 µM and 1.43 µM	
COc1ccc(-c2nc(-c3cc(OC)cc(OC)c3)[nH]c2-c2ccc(OC)cc2)cc1	> 100 µM	8.74 µM	6.96 µM	> 100 µM	> 100 µM	> 100 µM	> 100 µM	> 100 µM	> 100 µM	> 100 µM	> 100 µM	2.43 µM	2.49 µM	8.37 µM	> 100 µM	8.06 µM	> 100 µM	23.8 µM	5.98 µM	6.2 µM
